Measured values published in US12466816B2, “Fused cyclic compound capable of degrading protein and use thereof” (Medshine Discovery Inc., priority 2019, dated 2025).

How the values were obtained:
Type in all cases: cell-based
[1] = tested on: MM.1S cells; assay: Sensitivity of MM.1S versus low-CRBN-expression MM.1S-p5000 cells to WX106 (CCK-8); conditions: 10 μM, 72 h, MM.1S-p5000 versus MM.1S
Experimental: WX106 (10 μM) was added to MM.1S cells and MM.1S-p5000 (Poma-resistant low-CRBN-expression cell line) cells, respectively, and cell proliferation was detected by CCK-8 after 72 h.

[2] = tested on: tumor cell lines; assay: Cell experiment: CCK-8 growth inhibition of tumor cell lines; conditions: 72 hours, hematological tumor cells and some liver cancer cells, read-out: growth inhibitory effect (inhibition rate)
Experimental: Different cells were seeded in 96-well plates (the density of adherent cells was 1,000/well and the density of suspension cells was 10,000/well), 10 μM of WX106 was added for 72 hours of action, and CCK-8 reagent (Meilun Biotechnology, MA0218-L) was added for 2 hours of reaction thereafter; and the plate was then read with a microplate reader (SpectraMax i3) and the inhibition rate was calculated. Inhibition rate=[(Ac−As)/(Ac−Ab)]×100% (where As represents the absorbance of experimental wells, Ac represents the absorbance of control wells, and Ab represents the absorbance of blank wells).
Eighteen tumor cell lines were treated with 10 μM of WX106 for 72 hours, and the rate of inhibition of cell growth by WX106 was calculated.

[3] = target: T1, Wee1 (Homo sapiens, UniProt P30291); assay: Detection of compounds that degrade Wee1 protein (Western blot); set-up: endogenous in cells; host or cells: MOLT-4, U87-MG; conditions: MOLT-4 cells 10 μM 4 hours, U87-MG cells 1 μM 24 hours
Experimental: MOLT-4 cells were treated with 10 μM of the test compound for 4 hours and U87-MG cells were treated with 1 μM of the test compound for 24 hours, respectively. With GAPDH (Santa Cruz, sc-32233) as the internal reference protein, the protein level of Wee1 (Cell Signaling, 13084S) was detected using Western blot. Cells were collected, lysed with protein loading buffer (1M Tris-HCl, 10% SDS, 0.025% BPB), and denatured at 98° C. for 10 min before Western blot analysis. The main steps include: 1) Electrophoresis: The protein was separated by SDS-PAGE electrophoresis. During the electrophoresis, the voltage was adjusted to 80 v for about 30 min, and then the voltage was adjusted to 120 v until the bromophenol blue ran out of the gel. 2) Transfer to a membrane: the gel was stuck to a methanol-activated PVDF membrane using the method of wet transfer, and after the top and bottom layers were wrapped with filter paper, the membrane was placed into the gel holder cassette and fixed to the transfer tank, and transfer was performed at a constant current of 250 mA for 90 min; 3) Blocking: the PVDF membrane with trace protein was placed into the antibody incubation box, 5% skim milk was added to completely cover the PVDF membrane, and incubation was performed for 1 hour on a shaker at room temperature; 4) Incubation of the primary antibody: the primary antibody was prepared with 5% BSA (1:1000) and incubated overnight on a shaker at 4° C.; 5) Incubation of the secondary antibody: the membrane was washed thrice with TBST, the secondary antibody (prepared with 5% skim milk) was added (according to the species source of the primary antibody, different secondary antibodies with a dilution range of 1:3000-1:10000 were used), and incubation was performed on a shaker at room temperature for one hour; 5) Exposure: the membrane was washed thrice with TBST and the bands on the membrane were detected by chemiluminescence.

[4] = target: T2, Wee1-CRBN complex (Homo sapiens, UniProt P30291+Q96SW2); assay: Co-immunoprecipitation; conditions: 293T cells
T2 construct: expressed in transfected cells; host or cells: 293T
Experimental: The plasmid was transfected into 293T cells. After 24 hours, the compound WX106 was added to treat the cells for a certain period of time. The cells were lysed with NETN lysis buffer (150 mM NaCl, 50 mM Tris-HCl of pH 8.0, 1% NP40), followed by incubation with agarose beads (EZview™ Red anti-HA affinity gel, Sigma, E6779; anti-FLAG® M2 affinity gel, Sigma, A2220) and lysis buffer for 2 hours. The beads were washed 4 times with lysis buffer, loading buffer (100 mM Tris-HCl, 4% SDS, 0.05% BPB, 2% β-mercaptoethanol, 20% glycerol) was added and detection was performed using Western blot.
According to FIG. 24, HA CRBN (CRBN was overexpressed in cells by transfection technology; HA is a polypeptide and CRBN fusion expression; CRBN refers to endogenous CRBN in cells) and FLAG Wee1 (Wee1 was overexpressed in cells by transfection technology; FLAG is a polypeptide and CRBN fusion expression; Wee1 refers to endogenous Wee1 in cells) were overexpressed in 293T cells [and left to stand] for 24 hours after transfection; thereafter, the cells were treated with 20 μM MG132 or 10 μM WX106 1 h and 2 h before they were harvested for Co-IP (co-immunoprecipitation) assay, respectively. […] According to FIG. 26, overexpressed CRBN and endogenous Wee1 were used for co-immunoprecipitation. […] According to FIG. 27, different Wee1 fragments were cloned separately and subjected to Co-IP with CRBN.

[5] = target: T3, GSPT1 (Homo sapiens, UniProt P15170); assay: Detection of protein degradation by the drug (Western blot); conditions: MOLT-4 cells
T3 construct: endogenous in cells; host or cells: MOLT-4

[6] = target: T1, Wee1; assay: CRBN-dependent ubiquitin-mediated degradation of Wee1 (wild-type versus CRBN KO cells, Western blot); set-up: endogenous in cells; host or cells: U87-MG
Experimental: 293T cells and 293T CRBN KO cells were treated with DMSO, 1 μM WX106, 10 μM WX106 alone or in combination with 10 μM MG132 for 16 h, the whole-cell lysates were collected, and Wee1 protein expression was detected using Western blot. […] U87-MG cells and U87-MG CRBN KO cells were treated with 10 μM WX106 or WX106 plus 10 μM MG132 for 16 h, and the level of Wee1 protein expression was detected using Western blot.

T1 sequence (P30291 whole entry): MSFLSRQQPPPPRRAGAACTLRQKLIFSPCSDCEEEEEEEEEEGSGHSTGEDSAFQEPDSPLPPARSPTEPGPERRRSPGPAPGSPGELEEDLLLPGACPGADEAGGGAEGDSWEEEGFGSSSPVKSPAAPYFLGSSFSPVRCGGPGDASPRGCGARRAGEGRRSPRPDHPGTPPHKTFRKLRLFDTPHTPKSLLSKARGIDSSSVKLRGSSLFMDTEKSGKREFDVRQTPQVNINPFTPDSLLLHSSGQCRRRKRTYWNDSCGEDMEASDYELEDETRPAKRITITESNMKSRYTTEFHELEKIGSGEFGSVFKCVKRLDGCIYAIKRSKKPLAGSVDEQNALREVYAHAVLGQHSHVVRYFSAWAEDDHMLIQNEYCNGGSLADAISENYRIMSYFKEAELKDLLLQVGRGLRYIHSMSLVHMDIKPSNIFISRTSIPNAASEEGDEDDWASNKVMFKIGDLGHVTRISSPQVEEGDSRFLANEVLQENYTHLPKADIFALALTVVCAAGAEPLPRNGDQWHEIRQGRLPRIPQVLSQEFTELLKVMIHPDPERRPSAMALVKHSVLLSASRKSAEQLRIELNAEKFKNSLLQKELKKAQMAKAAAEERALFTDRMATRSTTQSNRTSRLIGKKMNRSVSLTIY
T2 sequence (Q96SW2 whole entry): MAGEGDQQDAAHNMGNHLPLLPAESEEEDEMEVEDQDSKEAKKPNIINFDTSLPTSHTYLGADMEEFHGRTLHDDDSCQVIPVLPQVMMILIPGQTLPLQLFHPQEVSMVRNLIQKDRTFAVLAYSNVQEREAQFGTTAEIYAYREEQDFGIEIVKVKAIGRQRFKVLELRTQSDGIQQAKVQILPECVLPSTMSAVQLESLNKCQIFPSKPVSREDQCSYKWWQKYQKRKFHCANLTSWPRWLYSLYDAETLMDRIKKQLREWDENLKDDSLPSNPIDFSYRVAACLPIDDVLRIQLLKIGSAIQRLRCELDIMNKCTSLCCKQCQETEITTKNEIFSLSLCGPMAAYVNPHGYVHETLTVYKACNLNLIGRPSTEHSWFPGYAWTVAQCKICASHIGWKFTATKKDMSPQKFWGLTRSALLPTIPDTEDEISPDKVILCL
T2 sequence (P30291 whole entry): as the sequence (P30291 whole entry) above
T2 sequence (Q16531 whole entry partner): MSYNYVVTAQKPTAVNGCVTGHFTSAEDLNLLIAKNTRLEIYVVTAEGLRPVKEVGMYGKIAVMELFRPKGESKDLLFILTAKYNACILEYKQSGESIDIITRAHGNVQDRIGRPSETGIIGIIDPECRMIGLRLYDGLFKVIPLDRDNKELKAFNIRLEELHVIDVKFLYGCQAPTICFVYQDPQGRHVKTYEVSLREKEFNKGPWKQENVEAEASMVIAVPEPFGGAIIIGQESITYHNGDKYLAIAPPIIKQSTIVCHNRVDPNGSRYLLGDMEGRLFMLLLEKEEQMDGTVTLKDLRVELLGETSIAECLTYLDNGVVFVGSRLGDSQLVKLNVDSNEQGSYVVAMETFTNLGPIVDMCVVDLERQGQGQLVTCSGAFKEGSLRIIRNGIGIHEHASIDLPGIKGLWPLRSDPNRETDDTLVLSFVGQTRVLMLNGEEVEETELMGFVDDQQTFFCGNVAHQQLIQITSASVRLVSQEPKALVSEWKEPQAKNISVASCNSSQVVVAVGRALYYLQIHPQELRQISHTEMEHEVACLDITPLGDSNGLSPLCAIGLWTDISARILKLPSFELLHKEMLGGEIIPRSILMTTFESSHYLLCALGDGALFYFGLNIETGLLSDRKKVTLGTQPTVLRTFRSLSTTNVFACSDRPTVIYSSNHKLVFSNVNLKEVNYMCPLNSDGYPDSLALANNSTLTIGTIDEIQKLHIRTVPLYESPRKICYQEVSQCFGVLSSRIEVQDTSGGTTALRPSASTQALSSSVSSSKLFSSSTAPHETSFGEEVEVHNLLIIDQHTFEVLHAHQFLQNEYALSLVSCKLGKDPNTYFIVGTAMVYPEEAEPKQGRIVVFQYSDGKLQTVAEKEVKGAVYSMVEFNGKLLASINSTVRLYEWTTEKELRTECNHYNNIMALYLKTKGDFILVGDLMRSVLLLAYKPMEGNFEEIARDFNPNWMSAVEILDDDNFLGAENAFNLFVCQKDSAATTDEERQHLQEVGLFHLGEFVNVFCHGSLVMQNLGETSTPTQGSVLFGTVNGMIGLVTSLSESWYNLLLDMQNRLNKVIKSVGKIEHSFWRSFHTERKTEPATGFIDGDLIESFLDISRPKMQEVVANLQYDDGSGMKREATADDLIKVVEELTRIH
T3 sequence (P15170 whole entry): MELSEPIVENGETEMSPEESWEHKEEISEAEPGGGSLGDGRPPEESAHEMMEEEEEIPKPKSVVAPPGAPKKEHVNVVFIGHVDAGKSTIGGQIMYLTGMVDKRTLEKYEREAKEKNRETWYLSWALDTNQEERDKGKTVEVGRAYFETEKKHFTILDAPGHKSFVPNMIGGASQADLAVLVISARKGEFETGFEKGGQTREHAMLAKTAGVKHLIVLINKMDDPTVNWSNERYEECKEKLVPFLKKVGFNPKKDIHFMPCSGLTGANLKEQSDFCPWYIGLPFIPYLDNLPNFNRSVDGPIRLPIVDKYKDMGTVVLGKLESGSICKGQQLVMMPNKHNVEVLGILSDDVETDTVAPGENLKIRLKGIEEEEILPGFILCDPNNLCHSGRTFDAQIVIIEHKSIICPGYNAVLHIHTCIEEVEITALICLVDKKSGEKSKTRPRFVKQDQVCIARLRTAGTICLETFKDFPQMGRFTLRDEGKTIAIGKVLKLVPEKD

Cc1ccc(C(=O)Nc2ccc3occ(C4CCC(=O)NC4=O)c3c2)cc1Cl (stereo not shown) [WX106]
sensitivity of cells to WX106 with low CRBN expression [1]: significantly less sensitive | inhibition at 10 µM [2]: > 50% | pro-degradation effect on Wee1 [3]: pro-degradation effect on Wee1 | relative strength of the pro-degradation effect on Wee1 ([3]; among tested compounds): the strongest | complex formed by Wee1 and CRBN (HA CRBN and FLAG Wee1 overexpressed) ([4]; 10 μM WX106, 20 μM MG132, FIG. 24): significantly increased | complex formed by Wee1 and CRBN (overexpressed CRBN and endogenous Wee1) ([4]; FIG. 26): significantly increased | pro-degradation effect on GSPT1 [5]: no significant pro-degradation effect | level of Wee1 expression in CRBN-deficient cells ([6]; 293T CRBN KO cells, 1 μM or 10 μM, 16 h): no significant change | Wee1 degradation in wild-type cells ([6]; 293T cells, 1 μM or 10 μM, 16 h): promoted Wee1 degradation | pro-degradation effect on Wee1 when MG132 was added ([6]; wild-type 293T cells, with 10 μM MG132, 16 h): absent
